Assay results from patent EP4635945A1, “CRYSTAL FORM OF PROXIMOD, PREPARATION METHOD THEREFOR, AND USE THEREOF” (Jiankuan (Suzhou) Biotechnology Co., Ltd, priority 2022, dated 2024).

Test: Crystal form stability on vacuum drying (XRPD)
Type: physicochemical
Experimental: After the above sample was dried under vacuum at 50 °C for 6 hours, the XRPD detection was performed. […] The TGA curves of the sample of the crystal form D of proximod which was dried and the sample of the crystal form D of proximod which was dried and placed at room temperature for two days are shown in FIGS. 16 and 17, respectively. […] The theoretical weight loss of the proximod […] is 6.1%. […] Based on the above experimental results, it is inferred that the crystal form D is an unstable sesquihydrate. It is inferred that the crystal form D is an unstable sesquihydrate and is prone to crystal transformation during drying and storage, making it difficult to prepare a pure phase.
The obtained wet sample was subjected to the XRPD detection. The obtained solid was the crystal form F of the present application, and the X-ray powder diffraction (XRPD) pattern of the crystal form F is shown in FIG. 21. After the wet sample was dried under vacuum at 50 °C for 2 hours, the XRPD detection was performed.

| Compound | Crystal form after drying (XRPD) (dried under vacuum at 50 °C for 6 hours) | Crystal form after drying (XRPD) (wet sample dried under vacuum at 50 °C for 2 hours) |
| --- | --- | --- |
| CCCc1nc(-c2ccc(-c3ccc(CCC(N)(CO)CO)cc3)cc2)co1.Cl [Crystal form D, 2-amino-2-{2-(4'-(2-propyloxazol-4-yl)-[1,1'-biphenyl]-4-yl)ethyl}-1,3-propanediol hydrochloride] | partially crystal transformed into the crystal form A | – |
| CCCc1nc(-c2ccc(-c3ccc(CCC(N)(CO)CO)cc3)cc2)co1.Cl [Crystal form F, 2-amino-2-{2-(4'-(2-propyloxazol-4-yl)-[1,1'-biphenyl]-4-yl)ethyl}-1,3-propanediol hydrochloride] | – | partially crystal transformed into the crystal form A |
